{
  "source": "patent EP2891491A1",
  "about": "“Use of (r)-phenylpiracetam for the treatment of sleep disorders” (Merz Pharma GmbH & Co. KGaA, priority 2014, dated 2015)",
  "key": {"[1]": {"tested_on": "subjects with Parkinson's Disease", "assay": "clinical study of EDS in Parkinson patients, Epworth Sleepiness Scale", "type": "in vivo, humans", "details": "50 mg bid for 4 weeks, oral, adjunct to L-Dopa", "protocol": "In a prospective, randomized, double-blind, placebo-controlled, parallel group, multicenter study the tolerability, safety and efficacy of (R)-Phenylpiracetam after oral administration adjunct to L-Dopa treatment is confirmed. After a screening period of one week 36 subjects with Parkinson's Disease receive 50 mg (R)-Phenylpiracetam or placebo bid at 8.00 am and 3.00 pm for 4 weeks. A safety follow-up is performed 1 week after the double-blind treatment period. Visits take place 1 week before randomization (V1, day -7), at baseline (V2, day 1), at Week 2 (V3) and Week 4 (V4). A safety follow-up (V5) is performed 1 week after the last intake of study medication. An assessment of excessive daily sleepiness using the Epworth Sleepiness Scale [ESS] takes place at screening, baseline, week 2 and week 4.\nThe questionnaire asks the subject to rate his or her probability of falling asleep on a scale of increasing probability from 0 to 3 for 8 different situations that most people engage in during their daily lives, though not necessarily every day (Johns et al. J Neurol Neurosurg Psychiatry. 2005;76(12):1636). The scores for the 8 questions are added together to obtain a single number. […]\nThe absolute change of ESS from day 1 to day 14 and 28 is analyzed."}, "[2]": {"details": "in vivo; cited from earlier work"}},
  "data": [
    {"molecule": "NC(=O)CN1C[C@@H](c2ccccc2)CC1=O", "note": "[(R)-phenylpiracetam]", "values": [
      {"measurement": "improvement of ESS (absolute change from day 1 to day 14 and 28)", "setting": "[1]", "result": "at least 3 points"},
      {"measurement": "memory function in the passive avoidance test", "setting": "[2]", "result": "enhanced memory function significantly better compared to (S)-phenylpiracetam"}
    ]}
  ]
}
